Measurements as given in patent US11602534B2, “Pyrimidine derivative kinase inhibitors” (HEFEI INSTITUTES OF PHYSICAL SCIENCE, CHINESE ACADEMY OF …, priority 2017, dated 2023).

What was measured:
P210-BaF3 = assay: Proliferation of P210-BaF3 cells, CCK8 cell viability assay; format: cell-based; details: Mus musculus, 72 hours, stably expressing BCR-ABL mutant activated kinase
Outline: (§1)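 Human kinase-region sequences were PCR-amplified, fused behind N-terminal TEL in MSCV-Puro and stably introduced into mouse BaF3 by retrovirus. IL-3 was then removed to give kinase-dependent lines. Compound effects on these and on parental BaF3 are scored as GI50 (μM) via CCK8 viable-cell quantification.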

MV4-11 cells = assay: Nude mouse model harboring subcutaneous MV4-11 tumor; format: in vivo; details: for tumor volume increase: oral gavage; for tumor growth in mice: MV4-11 subcutaneous tumor, daily oral gavage, four weeks
Procedure: In order to determine the inhibitory effect of Compound 5 and Compound 135 on tumors in vivo, a nude mouse model harboring subcutaneous tumor was introduced. 44 mice (5-week-old) (Balb/c-nu female mice, purchased from Shanghai Snake Experimental Animal Co., Ltd.) were inoculated subcutaneously with MV4-11 cells at 1×10^7 cells/mouse, and the changes in body weight and tumor volume were recorded daily (tumor volume=tumor length×tumor width×tumor width/2). 10 days later, the mice, of which tumor volumes reached 200 mm^3, were randomized into seven groups with 5-9 mice in each group, and were treated as follows: the first group was administered daily by oral gavage with vehicle, i.e., methylcellulose-based aqueous suspension (purchased from Sinopharm Group Chemical Reagent Co., Ltd.); the second, third and the fourth groups were administered daily by oral gavage with 25 mg/kg, 50 mg/kg, 100 mg/kg of Compound 135 in a methylcellulose-based aqueous suspension formulation; the fifth, sixth and seventh groups were administered daily by oral gavage with 25 mg/kg, 50 mg/kg, 100 mg/kg of Compound 5 in a methylcellulose-based aqueous suspension formulation. The first day of administration was recorded as day 0, followed by continuous administration for four weeks (FIGS. 3a-3b).

[1] = Phosphorylation of STATS downstream of FLT3 in AML cells; format: cell-based, human; details: MV-4-11, MOLM13 and MOLM-14; 4 hours; compounds 0.01-3 μM, PKC412 1 μM
Procedure: (§2) In cells having FLT3 gene and/or FLT3/ITD mutant gene, specifically, human acute myeloid leukemia cells MV4-11 (expressing FLT3/ITD mutant gene) cell strain and human acute myeloid leukemia cells MOLM-13 and MOLM-14 (expressing FLT3/ITD mutant gene and wild-type FLT3 gene) cell strains, Compound 5, Compound 135 and a FLT3 kinase inhibitor, PKC412 (purchased from Hao Yuan Chemexpress Company, Shanghai), which was used as the control, were evaluated for their effects in cells on phosphorylation of FLT3 and FLT3/ITD protein kinase and phosphorylation of the closely-related STATS protein which is downstream of FLT3 signaling pathways, as well as their effects on phosphorylation of other relevant protein kinases such as ERK and AKT, by assaying a number of cellular biochemical and functional endpoints. In addition, the effects on C-Myc and phosphorylation of the transcription factor NF-κB subunit p65 was also examined (FIGS. 1a-1f). Compound 5 and Compound 135 at different concentrations (0 μM, 0.01 μM, 0.03 μM, 0.1 μM, 0.3 μM, 1 μM, 3 μM in DMSO) and the FLT3 kinase inhibitor PKC412 (1 μM in DMSO) were used to treat acute myeloid leukemia cells MV-4-11, MOLM13 and MOLM-14 that had FLT3 and/or FLT3/ITD gene for 4 hours, respectively, and then the samples were collected. The effects of the compounds on the phosphorylation of proteins such as STATS, C-Myc, ERK, NF-κB p65, AKT in cells were tested (FIGS. 1a-1f).

protein kinase FLT3 = assay: Phosphorylation of FLT3 in AML cells; format: cell-based, human; details: MV-4-11, MOLM-13 and MOLM-14 cell lines; 4 hours; compounds 0.01-3 μM, PKC412 1 μM
Procedure: as §2

[2] = system: human acute myeloid leukemia cell strain MOLM-14; assay: Proliferation of MOLM-14 cells, Cell Titer-Glo; format: cell-based; details: for GI50: Homo sapiens, MOLM-14, 72 hours, Cell Titer-Glo, FLT3/ITD and wild-type FLT3, read-out: GI50 MOLM14
Procedure: (§3) In addition, in this example the inhibitory activity of preferred compounds (Compound 5 and Compound 135) was tested against the following cell strains: human acute myeloid leukemia cell strain MV4-11 (expressing FLT3/ITD mutant gene), human acute myeloid leukemia cell strain MOLM-13 (expressing FLT3/ITD mutant gene and wild-type FLT3 gene), human acute myeloid leukemia cell strain MOLM-14 (expressing FLT3/ITD mutant gene and wild-type FLT3 gene), human acute myeloid leukemia cell strain OCI-AML-3 (expressing FLT3 A680V mutant gene), human chronic lymphatic leukemia cell strain MEC-1, Chinese hamster lung (CHL) cells, Chinese hamster ovary (CHO) cells, wherein all the cells were purchased from ATCC. In the example the compounds of the present invention were added respectively into the above cells at different concentrations (0.000508 μM, 0.00152 μM, 0.00457 μM, 0.0137 μM, 0.0411 μM, 0.123 μM, 0.370 μM, 1.11 μM, 3.33 μM, 10 μM in DMSO) and the cells were incubated for 72 hours. The number of viable cells was determined by quantification of ATP in living cells using Cell Titer-Glo® (Promega, the USA) Luminescent Cell Viability Assay kit and thereby GI50 was calculated.

[3] = system: human acute myeloid leukemia cell strain MOLM-13; assay: Proliferation of MOLM-13 cells, Cell Titer-Glo; format: cell-based; details: for GI50: Homo sapiens, MOLM-13, 72 hours, Cell Titer-Glo, FLT3/ITD and wild-type FLT3, read-out: GI50 MOLM13
Procedure: as §3

FLT3-ITD-BaF3 = assay: Proliferation of FLT3-ITD-BaF3 cells, CCK8 cell viability assay; format: cell-based; details: Mus musculus, 72 hours, stably expressing FLT3/ITD
Outline: as §1

For `CC(=O)Nc1cc(Oc2ccc(NC(=O)Cc3ccc(F)cc3F)cc2)ncn1` [Example 5, N-[4-(6-acetylamino-pyrimidin-4-yloxy)-phenyl]-2-(2,4-difluoro-phenyl)-acetamide], the GI50 (P210-BaF3) was > 10000 nM, the tumor volume increase (MV4-11 cells; 50 mg/kg/day) was “slowed significantly” and the tumor volume increase (MV4-11 cells; 100 mg/kg/day) was “slowed vastly”. For the same compound, the “tumor growth in mice” value (MV4-11 cells) was “significantly inhibited”, the “phosphorylation of STATS” value [1] was “significant inhibition” and the “phosphorylation of the protein kinase FLT3” value (protein kinase FLT3) was “capable of inhibiting phosphorylation”. The GI50 [2] was 333 nM, the “inhibition of MOLM14 (in words)” value ([2]; summary of Table 3) was “selectively and strongly inhibited” and the GI50 [3] was 267 nM. For the same compound, the “inhibition of MOLM13 (in words)” value ([3]; summary of Table 3) was “selectively and strongly inhibited” and the GI50 (FLT3-ITD-BaF3) was 30 nM.

With `CC(=O)Nc1cc(Oc2ccc(NC(=O)Cc3ccccc3C(F)(F)F)cc2)ncn1` [Example 135, N-[4-(6-acetylamino-pyrimidin-4-yloxy)-phenyl]-2-(2-trifluoromethyl-phenyl)-acetamide] the GI50 (P210-BaF3) was > 10000 nM, the tumor volume increase (MV4-11 cells; 50 mg/kg/day) was “slowed significantly” and the tumor volume increase (MV4-11 cells; 100 mg/kg/day) was “slowed vastly”. For the same compound, the “tumor growth in mice” value (MV4-11 cells) was “significantly inhibited”, the “phosphorylation of STATS” value [1] was “significant inhibition” and the “phosphorylation of the protein kinase FLT3” value (protein kinase FLT3) was “capable of inhibiting phosphorylation”. It also gave a GI50 [2] of 343 nM, a GI50 [3] of 466 nM and a GI50 (FLT3-ITD-BaF3) of 32 nM.
